Reference: patent publication US9873719B2, “Salt and protease-resistance of antimicrobial peptide and the manufacture thereof” (priority 2013, dated 2018)
Square brackets hold non-standard residues; d marks the D form. Peptide text beside a SMILES is read from it. 2Nal = N[C@@H](Cc1ccc2ccccc2c1)C(=O)O

Tests used:
[1] = test system: Eschericha coli (ATCC 25922), Staphylococcus aureus (ATCC 25923, 29213, and 19636), and Pseudomonas aeruginosa (ATCC 27853 and 9027); experiment: Salt resistance test: antibacterial activity assay (NCCLS microdilution, MIC90); type: cell-based; details: for antimicrobial activity: at MHB medium or the high-salt condition, FIG. 1a/1b; for antimicrobial activity compared with reference peptide (S1 or S2-Nal): MHB medium or the high-salt condition, comparison in words; for antimicrobial activity at 300 mM NaCl: FIG. 1b
Source text: Antibacterial activity assay was used to determine the antimicrobial activity of S1, Nal-S1, S1-Nal-Nal, S1-Nal-Nal-Nal, S1-W, S1-W-W, S1-K-K-K, S2-Nal, S2-F-Nal, S2-Nal-Nal at different salt concentration. Eschericha coli (ATCC 25922), Staphylococcus aureus (ATCC 25923, 29213, and 19636), and Pseudomonas aeruginosa (ATCC 27853 and 9027) were used in the Example.
Microdilution method of National Committee for Clinical Laboratory Standards (NCCLS) was used to determine the minimal inhibition concentration (MIC). The MIC as used herein is a minimum inhibitory concentration required to inhibit the growth of 90% of organisms (MIC90).
In the Microdilution method, 1 μl of peptide solution (5,000 μg/ml to 78.1 μg/ml) and 99 μl of bacteria suspension were mixed and added into 96 wells plates. After 16 hours of incubation at 37° C., the optical density (O.D.) value at 600 nm was detected by ELISA (Thermo Max, Molecular Devices, Sunnyvale, Calif.). The Muller-Hinton Broth (MHB) medium without peptide and bacterial suspension were used as negative control and positive control, separately. The MIC value means a minimum inhibitory concentration required to inhibit the growth (equal or more than 90%) of bacteria.

in vitro = in vitro ADME, bovine
Protocol: Serum stability of the peptides was determined in 25% (v/v) aqueous bovine calf serum (HyClone, cat. AUE-34962). Firstly, peptides were dissolved in serum at a concentration of 150 μg/mL and incubated at 37° C. After 45 min on ice for precipitating serum proteins, the serum was centrifuged at 12,000 g for 10 min at 4° C., and then the supernatants were lyophilized. Remaining amount of the peptides was determined by RP-HPLC.

[2] = test system: human red blood cells (hRBCs)
Protocol: The hemolysis of peptides was determined by evaluating the effect of peptides on human red blood cells (hRBCs). hRBCs were obtained by washing the heparinized blood with PBS buffer three times, and stored at physiological saline with 10% phosphate buffer. The peptides were dissolved in PBS buffer, and then 50 μl of 10% (v/v) hRBCs was added to the PBS buffer at 37° C. for 1 hour of incubation (the final volume concentration of the hRBCs was 5%). After 1 hour of incubation, the hBRCs were centrifuged, and the hemolysis ratio was determined by detecting the absorbance values at 540 nm using a spectrophotometer. The hemolysis ratio of hRBCs without treatment was defined as 0%, and the hemolysis ratio of hRBCs treated with 1% Triton-X 100 was defined as 100%.

| Molecule | antimicrobial activity [1] | degree of protection of the peptides from degradation in bovine calf serum (rank order) (in vitro) | antimicrobial activity compared with reference peptide (S1 or S2-Nal) [1] | hemolytic activity compared with other peptides [2] | antimicrobial activity at 300 mM NaCl [1] | remaining at 8 h, 150 μg/mL (in vitro; bovine, serum) [%] |
| --- | --- | --- | --- | --- | --- | --- |
| CC(=O)N[C@@H](CCCCN)C(=O)N[C@@H](CCCCN)C(=O)N[C@@H](Cc1ccc2ccccc2c1)C(=O)N[C@@H](CCCNC(=N)N)C(=O)N[C@@H](CCCCN)C(=O)N[C@@H](Cc1ccc2ccccc2c1)C(=O)N[C@@H](CC(C)C)C(=O)N[C@@H](C)C(=O)N[C@@H](CCCCN)C(=O)N[C@@H](CCCCN)C(N)=O [Nal-S1, KK-Nal-RK-Nal-LAKK] (Ac-KK[2Nal]RK[2Nal]LAKK-NH2; C-terminus assumed) | diminished | S1-Nal-Nal-Nal>S2-Nal-Nal=S2-Nal>S1-Nal-Nal>S1-Nal>S2-F-Nal>S1-KKK>S1>Nal-S1=S1-W>S1-WW |  |  |  |  |
| CC(=O)N[C@@H](CCCCN)C(=O)N[C@@H](CCCCN)C(=O)N[C@@H](Cc1c[nH]c2ccccc12)C(=O)N[C@@H](CCCNC(=N)N)C(=O)N[C@@H](CCCCN)C(=O)N[C@@H](Cc1c[nH]c2ccccc12)C(=O)N[C@@H](CC(C)C)C(=O)N[C@@H](C)C(=O)N[C@@H](CCCCN)C(=O)N[C@@H](CCCCN)C(=O)N[C@@H](Cc1ccc2ccccc2c1)C(N)=O [Peptide S1-Nal, KKWRKWLAKK-Nal] (Ac-KKWRKWLAKK[2Nal]-NH2; C-terminus assumed) |  | S1-Nal-Nal-Nal>S2-Nal-Nal=S2-Nal>S1-Nal-Nal>S1-Nal>S2-F-Nal>S1-KKK>S1>Nal-S1=S1-W>S1-WW | better than S1 |  |  |  |
| CC(=O)N[C@@H](CCCCN)C(=O)N[C@@H](CCCCN)C(=O)N[C@@H](Cc1c[nH]c2ccccc12)C(=O)N[C@@H](CCCNC(=N)N)C(=O)N[C@@H](CCCCN)C(=O)N[C@@H](Cc1c[nH]c2ccccc12)C(=O)N[C@@H](CC(C)C)C(=O)N[C@@H](C)C(=O)N[C@@H](CCCCN)C(=O)N[C@@H](CCCCN)C(=O)N[C@@H](Cc1ccc2ccccc2c1)C(=O)N[C@@H](Cc1ccc2ccccc2c1)C(N)=O [Peptide S1-Nal-Nal, KKWRKWLAKK-Nal-Nal] (Ac-KKWRKWLAKK[2Nal][2Nal]-NH2; C-terminus assumed) | still retained the antimicrobial activities | S1-Nal-Nal-Nal>S2-Nal-Nal=S2-Nal>S1-Nal-Nal>S1-Nal>S2-F-Nal>S1-KKK>S1>Nal-S1=S1-W>S1-WW | better than S1 | higher hemolytic activity than other peptides |  |  |
| CC(=O)N[C@@H](CCCCN)C(=O)N[C@@H](Cc1c[nH]c2ccccc12)C(=O)N[C@@H](Cc1c[nH]c2ccccc12)C(=O)N[C@@H](CCCCN)C(=O)N[C@@H](Cc1ccccc1)C(=O)N[C@@H](Cc1ccc2ccccc2c1)C(N)=O [Peptide S2-F-Nal, KWWK-F-Nal] (Ac-KWWKF[2Nal]-NH2; C-terminus assumed) | diminished | S1-Nal-Nal-Nal>S2-Nal-Nal=S2-Nal>S1-Nal-Nal>S1-Nal>S2-F-Nal>S1-KKK>S1>Nal-S1=S1-W>S1-WW | higher than that of S2-Nal |  | still retained their antimicrobial activities |  |
| CC(=O)N[C@@H](CCCCN)C(=O)N[C@@H](Cc1c[nH]c2ccccc12)C(=O)N[C@@H](Cc1c[nH]c2ccccc12)C(=O)N[C@@H](CCCCN)C(=O)N[C@@H](Cc1ccc2ccccc2c1)C(N)=O [Peptide S2-Nal, KWWK-Nal] (Ac-KWWK[2Nal]-NH2; C-terminus assumed) | diminished | S1-Nal-Nal-Nal>S2-Nal-Nal=S2-Nal>S1-Nal-Nal>S1-Nal>S2-F-Nal>S1-KKK>S1>Nal-S1=S1-W>S1-WW |  |  |  |  |
| CC(=O)N[C@@H](CCCCN)C(=O)N[C@@H](Cc1c[nH]c2ccccc12)C(=O)N[C@@H](Cc1c[nH]c2ccccc12)C(=O)N[C@@H](CCCCN)C(=O)N[C@@H](Cc1ccc2ccccc2c1)C(=O)N[C@@H](Cc1ccc2ccccc2c1)C(N)=O [Peptide S2-Nal-Nal, KWWK-Nal-Nal] (Ac-KWWK[2Nal][2Nal]-NH2; C-terminus assumed) | diminished | S1-Nal-Nal-Nal>S2-Nal-Nal=S2-Nal>S1-Nal-Nal>S1-Nal>S2-F-Nal>S1-KKK>S1>Nal-S1=S1-W>S1-WW | higher than that of S2-Nal |  | still retained their antimicrobial activities |  |
| CC(=O)N[C@@H](CCCCN)C(=O)N[C@@H](CCCCN)C(=O)N[C@@H](Cc1c[nH]c2ccccc12)C(=O)N[C@@H](CCCNC(=N)N)C(=O)N[C@@H](CCCCN)C(=O)N[C@@H](Cc1c[nH]c2ccccc12)C(=O)N[C@@H](CC(C)C)C(=O)N[C@@H](C)C(=O)N[C@@H](CCCCN)C(=O)N[C@@H](CCCCN)C(=O)N[C@@H](Cc1ccc2ccccc2c1)C(=O)N[C@@H](Cc1ccc2ccccc2c1)C(=O)N[C@@H](Cc1ccc2ccccc2c1)C(N)=O [S1-Nal-Nal-Nal, KKWRKWLAKK-Nal-Nal-Nal] (Ac-KKWRKWLAKK[2Nal][2Nal][2Nal]-NH2; C-terminus assumed) | still retained the antimicrobial activities | S1-Nal-Nal-Nal>S2-Nal-Nal=S2-Nal>S1-Nal-Nal>S1-Nal>S2-F-Nal>S1-KKK>S1>Nal-S1=S1-W>S1-WW | better than S1 | higher hemolytic activity than other peptides |  | ~100 |
| Ac-KKWRKWLAKK-NH2 [Peptide S1, Ac-KKWRKWLAKK-NH2] | diminished | S1-Nal-Nal-Nal>S2-Nal-Nal=S2-Nal>S1-Nal-Nal>S1-Nal>S2-F-Nal>S1-KKK>S1>Nal-S1=S1-W>S1-WW |  |  |  |  |
| Ac-KKWRKWLAKKKKK-NH2 (C-terminus assumed) [Peptide S1-K-K-K, KKWRKWLAKKKKK] | diminished | S1-Nal-Nal-Nal>S2-Nal-Nal=S2-Nal>S1-Nal-Nal>S1-Nal>S2-F-Nal>S1-KKK>S1>Nal-S1=S1-W>S1-WW |  |  |  |  |
| Ac-KKWRKWLAKKW-NH2 (C-terminus assumed) [Peptide S1-W, KKWRKWLAKKW] | diminished | S1-Nal-Nal-Nal>S2-Nal-Nal=S2-Nal>S1-Nal-Nal>S1-Nal>S2-F-Nal>S1-KKK>S1>Nal-S1=S1-W>S1-WW |  |  |  |  |
| Ac-KKWRKWLAKKWW-NH2 (C-terminus assumed) [Peptide S1-W-W, KKWRKWLAKKWW] | diminished | S1-Nal-Nal-Nal>S2-Nal-Nal=S2-Nal>S1-Nal-Nal>S1-Nal>S2-F-Nal>S1-KKK>S1>Nal-S1=S1-W>S1-WW |  |  |  |  |
